Patent US20210338615A1, “Inhibition of Acetyl-CoA Metabolism for Treatment and Prevention of Immune System Diseases and Disorders” (Memorial Sloan Kettering Cancer Center, priority 2016, published 2021)

What was measured:
[1] = system: CD4CreLdhafl/fl (KO) CD4+ T cells differentiated under Th1 conditions; settings: 20 mM sodium acetate for 24 h
Protocol: In panels A-D, naïve CD4^+ T cells isolated from wild-type (WT) mice were differentiated under Th1 conditions for 2 days. DMSO or the ATP citrate lyase inhibitor (ACLi) BMS-303141 was added to the culture for another 24 h. Subsequently, cells were re-stimulated with phorbol myristate acetate (PMA) and ionomycin for 4 h. IFN-γ expression was determined by intracellular staining. […] Cell viability was determined by LIVE/DEAD staining. […] Data represent mean±SD, n=3. Two-tailed unpaired t-test, *P≤0.05; **P≤0.01; ns, not significant. […] Acetyl-CoA levels were measured by an acetyl-CoA assay kit. Data represent mean±SD, n=3. Two-tailed unpaired t-test, **P≤0.01. […] The expression of T-bet was determined by flow cytometry. Panels G and H show naïve CD4^+ T cells isolated from WT or KO mice, differentiated under Th1 conditions for 3 days. […] The expression of IFN-γ (panel G) and T-bet (panel H) were determined by flow cytometry. […]
For measurement of cytosolic acetyl-CoA, naïve CD4^+ T cells were differentiated under Th1 conditions for 2 days and then cultured in fresh T cell medium for another 24 h. […] Freshly isolated naïve WT and KO CD4^+ T cells were rested in T cell medium with 10 ng/mL IL-7 for 4 h at 37° C. in the incubator, and the level of acetyl-CoA was measured.

[2] = system: CD4+ T cells differentiated under Th1 conditions; test: IFN-γ expression in CD4+ T cells differentiated under Th1 conditions (intracellular staining, flow cytometry); type: cell-based, mouse; settings: for IFN-γ expression in KO T cells: LDHA-deficient (KO) Th1 cells, 20 mM sodium acetate or 30 nM TSA for another 24 h, PMA and ionomycin 4 h; for IFN-γ expression: WT naïve CD4+ T cells under Th1 conditions, inhibitor added for another 24 h, re-stimulated with PMA and ionomycin 4 h
Protocol: Panels D and E show naïve WT or KO CD4^+ T cells differentiated under Th1 conditions for 3 days, and either left untreated or supplemented with 20 mM sodium acetate for another 24 h.
(§1) IFN-γ expression was determined by intracellular staining. […] Cell viability was determined by LIVE/DEAD staining. […] Data represent mean±SD, n=3. […] Data represent mean±SD, n=3. Two-tailed unpaired t-test, **P≤0.01. […] Data represent mean±SD, n=4.
Naïve CD4^+ T cells isolated from wild-type mice were differentiated under Th1 conditions for 3 days. DMSO or indicated concentration of Fx11 was added to the cell culture for another 24 h, with or without 20 mM sodium acetate. […] IFN-γ expression was determined by intracellular staining. Representative plots (panel A) and quantification (panel B) are shown.
(§2) Cells from thymi, spleens, and lymph nodes were depleted of erythrocytes by hypotonic lysis. Cells were incubated with specific antibodies for 15 min on ice in the presence of anti-FcγR to block FcγR binding. Dead cells were excluded by DAPI (Invitrogen) staining. To determine cytokine expression, cells were stimulated with 50 ng/mL phorbol 12-myristate 13-acetate (Sigma) and 1 μM ionomycin (Sigma) in the presence of GolgiStop (BD Biosciences) for 4 h. After stimulation, cells were stained with cell-surface marker antibodies and LIVE/DEAD Fixable dye (Invitrogen) to exclude dead cells, fixed, and permeabilized with a transcription factor staining kit (eBioscience), followed by staining with cytokine antibodies. All samples were acquired with an LSR II flow cytometer (Becton, Dickinson) and analyzed with FlowJo software (TreeStar).
CD62L^+CD44^−CD25^−CD4^+ T cells were isolated from spleen and peripheral lymph nodes of wild-type (WT) or CD4^CreLdha^fl/fl (KO) mice with naïve CD4^+ T cells isolation kits (Miltenyi or Stem Cell). Purity was checked by flow cytometry, and was over 98%. For in vitro T cell activation, 0.2-0.5×10^6 naïve CD4^+ T cells were cultured on a 24-well plate pre-coated with 5 μg/mL anti-CD3 in T cell medium [RPMI/1640, 10% fetal bovine serum, 2 mM glutamine, 1 mM sodium pyruvate, 1× non-essential amino acid (Invitrogen), 10 mM HEPES, 55 μM 2-mercaptoethanol, 100 U/ml penicillin, […]] supplemented with 2 μg/mL anti-CD28 and 100 U/ml IL-2. For T helper 1 (Th1) cell differentiation, T cells were cultured with the addition of 10 μg/mL anti-IL-4 and 10 ng/mL IL-12. For T helper 17 (Th17) cell differentiation, T cells were cultured with the addition of 10 μg/mL anti-IL-4, 10 μg/mL anti-IFN-γ, 10 μg/mL anti-IL-2, 2 ng/ml TGF-β, 10 ng/ml IL-6, 10 ng/ml IL-23, and 10 ng/mL […]. For cell proliferation experiments, naïve CD4^+ T cells were labeled with CFSE (Invitrogen), and activated on a 24-well plate, pre-coated with 5 μg/mL anti-CD3, in T cell culture medium supplemented with 2 μg/mL anti-CD28 and 100 U/mL IL-2. CFSE dilution was assessed by flow cytometry on days 1, 2, and 3 post-activation. For sodium acetate and TSA treatment experiment, cells were differentiated under Th1 conditions for 3 days, and cultured in T cell medium supplemented with 100 U/mL IL-2, 10 μg/mL anti-IL-4, 10 ng/mL IL-12, and the indicated concentrations of sodium acetate (Sigma), TSA (Promega), or […] for 24 h. For ATP citrate lyase (ACL) inhibitor experiments, naïve CD4^+ T cells isolated from WT mice were cultured under Th1 conditions for 2 days or under Th17 conditions for 3 days. […]

H3K9Ac at the Ifng locus = test: H3K9Ac at the Ifng promoter and CNS22 enhancer regions by ChIP-qPCR; type: cell-based, mouse; settings: KO Th1 cells, 20 mM sodium acetate or 30 nM TSA for 24 h; normalized to Cd3e promoter
Protocol: Enrichment was normalized to H3K9Ac at the Cd3e promoter region. […] Cells were subsequently re-stimulated with phorbol myristate acetate (PMA) and ionomycin for 4 h.
In panels A-D, naïve CD4^+ T cells isolated from wild-type (WT) mice were differentiated under Th1 conditions for 2 days. […] Subsequently, cells were re-stimulated with phorbol myristate acetate (PMA) and ionomycin for 4 h. IFN-γ expression was determined by intracellular staining. […] Cell viability was determined by LIVE/DEAD staining. […] Data represent mean±SD, n=3. Two-tailed unpaired t-test, *P≤0.05; **P≤0.01; ns, not significant. […] Acetyl-CoA levels were measured by an acetyl-CoA assay kit. Data represent mean±SD, n=3. Two-tailed unpaired t-test, **P≤0.01. […] The expression of T-bet was determined by flow cytometry. Panels G and H show naïve CD4^+ T cells isolated from WT or KO mice, differentiated under Th1 conditions for 3 days. […] The expression of IFN-γ (panel G) and T-bet (panel H) were determined by flow cytometry. […]
Chromatin immunoprecipitations were performed with SimpleChIP Enzymatic Chromatin IP Kit (Cell Signaling) according to manufacturer's instructions. […] The relative abundance of precipitated DNA fragments was analyzed by qPCR using Power SYBR Green PCR Master Mix (Qiagen) and the enrichments were normalized to Cd3e promoter.

[3] = system: CD4+ T cells differentiated under Th1 conditions; test: T-bet expression in Th1 cells by flow cytometry; type: cell-based, mouse; settings: WT or KO Th1 cells, 20 mM sodium acetate or 30 nM TSA for another 24 h
Protocol: as §1, §2
CD62L^+CD44^−CD25^−CD4^+ T cells were isolated from spleen and peripheral lymph nodes of wild-type (WT) or CD4^CreLdha^fl/fl (KO) mice with naïve CD4^+ T cells isolation kits (Miltenyi or Stem Cell). […] CFSE dilution was assessed by flow cytometry on days 1, 2, and 3 post-activation. […]

[4] = system: experimental autoimmune encephalomyelitis (EAE); test: Experimental autoimmune encephalomyelitis (EAE), mouse model of multiple sclerosis; type: in vivo; settings: WT mice, MOG peptide with CFA; 35 mg/kg/day intraperitoneally daily from day 7
Protocol: In panels A-C, naïve WT or LDHA-deficient (KO) CD4^+ T cells were differentiated under Th17 conditions for 3 days. Cells were re-stimulated with PMA/ionomycin for 4 h. […] Data represent mean±SD, n=2. Two-tailed unpaired t-test, **P≤0.01. […] In panels D-F, WT or KO mice were subjected to EAE induction by immunization with MOG peptide with CFA. Clinical scoring in panel D: 0, no overt signs of disease; 1, limp tail; 2, partial hind-limb paralysis; 3, total hind-limb paralysis; 4, hind-limb paralysis and 75% body paralysis; 5, complete body paralysis, or moribund state, or death by EAE, or sacrifice for humane reasons. […] IL-17a and IFN-γ protein expression were examined by flow cytometry. Panel F is quantification of panel E; data represent mean±SD, n=4. Two-tailed unpaired t-test, ***P≤0.001. […] Naïve WT or KO CD4^+ T cells were differentiated under Th17 conditions for 3 days, and BMS 303141 was included in the culture for another 24 hours. Cells were re-stimulated with PMA/ionomycin for 4 h. IL-17a protein expression was examined by flow cytometry. […] WT mice were subjected to EAE induction by immunization with MOG peptide with CFA. BMS 303141 (35 mg/kg/day) was intraperitoneally injected daily, starting from day 7. Clinical scoring was the same as in panel D.

[5] = system: CD4+ T cells differentiated under Th17 conditions; test: IL-17a expression in CD4+ T cells differentiated under Th17 conditions (flow cytometry); type: cell-based, mouse
Protocol: Naïve WT or LDHA-deficient (KO) CD4^+ T cells were differentiated under Th17 conditions for 4 days. Increasing doses of GNE-140 were also included in the WT T cell culture. Cell viability was determined by a live/dead cell dye, and the percentage of live cell population is shown. In addition, cells were re-stimulated with PMA/ionomycin for 4 h. IL-17a and Foxp3 protein expression was examined by flow cytometry, and used as readouts for Th17 and Treg cell differentiation, respectively.
In panels A-C, naïve WT or LDHA-deficient (KO) CD4^+ T cells were differentiated under Th17 conditions for 3 days. Cells were re-stimulated with PMA/ionomycin for 4 h. […] Data represent mean±SD, n=2. Two-tailed unpaired t-test, **P≤0.01. […] In panels D-F, WT or KO mice were subjected to EAE induction by immunization with MOG peptide with CFA. […] Panel F is quantification of panel E; data represent mean±SD, n=4. […]
Naïve CD4 T cells (2.5×10^4) were isolated from spleen and peripheral lymph nodes of Ldha^fl/fl (WT) and CD4^CreLdha^fl/fl (KO) mice. […] Cytokines and transcription factors were analyzed by flow cytometry.
Cells from thymi, spleens, and lymph nodes were depleted of erythrocytes by hypotonic lysis. […] All samples were acquired with an LSR II flow cytometer (Becton, Dickinson) and analyzed with FlowJo software (TreeStar). […]

Row | Structure (SMILES) | IFN-γ expression in KO T cells [2] | H3K9Ac in the Ifng locus (H3K9Ac at the Ifng locus) | T-bet expression [3] | IFN-γ expression [2] | other results
1 | CC(=O)[O-].[Na+] [Acetate, sodium acetate] | corrected IFN-γ expression in KO T cells | normalization of H3K9Ac in Ifng promoter and enhancer regions | without affecting T-bet expression | – | acetyl-CoA production [1]: augmented acetyl-CoA production
2 | COc1ccc(-c2ccccc2)cc1NS(=O)(=O)c1cc(Cl)cc(Cl)c1O [BMS 303141, 3,5-dichloro-2-hydroxy-N-(4-methoxy[1,1′-biphenyl]-3-yl)-benzenesulfonamide] | – | – | – | suppresses IFN-γ expression | protection from EAE (clinical scoring) [4]: completely protected mice from EAE; IL-17a production ([5]; Th17 conditions for 3 days, BMS 303141 in the culture for another 24 hours, PMA/ionomycin 4 h): repressed IL-17a production
3 | CCCc1c(O)c(O)c(C(=O)O)c2cc(Cc3ccccc3)c(C)cc12 [FX11] | – | – | – | dose-dependently inhibited IFN-γ expression | inhibitory effect on IFN-γ expression when supplementing cells with acetate ([2]; WT Th1 cells, FX11 for 24 h with 20 mM sodium acetate): fully nullified
4 | O=C1N[C@](c2ccc(N3CCOCC3)cc2)(c2ccsc2)CC(O)=C1Sc1ccccc1Cl [GNE-140, (2R)-5-(2-chlorophenyl)sulfanyl-4-hydroxy-2-(4-morpholin-4-ylphenyl)-2-thiophen-3-yl-1,3-dihydropyridin-6-one] | – | – | – | – | IL-17A expression ([5]; WT T cells under Th17 conditions with APCs, 0.3, 10 or 30 μM GNE-140, harvested day 4, PMA/ionomycin 4 h): inhibited IL-17A expression in WT T cells in a dose-dependent manner
5 | CC(/C=C/C(=O)NO)=C\[C@@H](C)C(=O)c1ccc(N(C)C)cc1 [TSA] | rectified IFN-γ expression in KO T cells | increased H3K9Ac in the Ifng locus | without affecting T-bet expression | – | –
